Results reported in patent publication US8614227B2, “Salt and solvates of a tetrahydroisoquinoline derivative” (Spinifex Pharmaceuticals Pty Ltd, priority 2010, dated 2013).
Like-named read-outs stand apart in the source and are kept apart here.

What was measured:
[1] = Compound 2 solution stability, one week (HPLC % purity); format: physicochemical; settings: for Δ% Purity at 5° C. / Δ% Purity at 25° C./60% RH: 1 week; for Initial % Purity: t=0
Procedure: The above analysis was taken as t=0 and the samples were then divided in two and one of each sample was stored at 5° C. for one week and the other of each sample was stored at 25° C./60% relative humidity (RH) for one week.
After one week, the samples were allowed to equilibrate to room temperature and if required (H2O and pH 7-9 samples stored at 5° C.) refiltered to remove precipitate.
The samples were reanalyzed by HPLC.

[2] = Pharmacokinetics in male beagle dogs after a single oral dose (plasma Compound 1); settings: dog, 10 mg/kg
Procedure: (§1) The study was designed to compare the PK profiles of the following four forms of Compound 1 administered as single oral capsules in fasted state. […] There was a washout period of 4 days between dosing. The blood samples were collected from each animal at predetermined times on the study Days 1, 4, 8 and 11. The plasma was analyzed for Compound 1 by a validated HPLC-MS/MS assay.
(§2) Descriptive PK parameters were determined by standard model independent methods (Gibaldi and Perrier, 1982) based on the individual plasma concentration-time data. Plasma concentrations were rounded to 3 significant figures. Plasma samples with concentrations below the quantifiable assay limit (BQL<2.00 ng/mL) were assigned values of zero for mean calculations. For PK calculations, BQL was set to zero from the pre-dose time up to the time of the first quantifiable concentration and thereafter was set as missing. Nominal time points were used for all calculations. • Cmax is the observed maximum plasma concentration after dosing. • Tmax is the time to reach Cmax. • T1/2 is apparent half-life calculated by ln(2)/λ where λ is the rate constant fix the log-linear portion of the terminal phase. A minimum of three values in the post-distribution phase of the plasma concentration-time curve is required for calculation of X. • AUC(0-T) is the area under the plasma concentration-time curve from time zero to the time of the last measurable plasma concentration determined using the linear trapezoidal rule. • AUC(0-inf) is the area under the plasma concentration-time curve from time zero to infinity. It is calculated by summing AUC(0-T) and the extrapolated area from the T to infinity.
(§3) PK analyses were performed by noncompartmental analysis using model 200 in WinNonlin Professional 6.1 (Pharsight Corp., Mountain View, Calif.).

[3] = Bulk density, tap density, powder flow, particle size and milling feasibility of Compound 2; format: physicochemical; settings: for Tap Density: Autotap 100 cycles
Procedure: Compound 2 particle size distribution was determined by sieve screen analysis. A sample of Compound 2 was passed through a series of sieves, which included a 53, 106, 250, 500, 710, and 1000 μm mesh screen. Each screen was weighed before and after the sieving occurred to determine the amount of compound at each particle size.
The powder flow was determined on a FlowDex apparatus.
Bulk density was determined by filling a tared 100 mL graduated cylinder with Compound 2. The volume and weight of Compound 2 added was recorded and used to calculate its bulk density. Tap density was then determined by taking the same graduated cylinder filled with Compound 2 and placing it on an Autotap set for 100 cycles. The new powder volume was recorded and used to calculate the tap density.
24.73 mg of Compound 2 was weighed directly into a tared 25 mL volumetric flask. The flask was diluted to volume with ACN and inverted to mix. A sample was taken to determine the % purity (% area) of the drug before milling took place. Milling was performed by taking 17.92 g of Compound 2 and passing this material it through a conical mill with an 1143 μm screen. 14.33 g of Compound 2 was recovered and re-analyzed for particle size distribution, bulk density, and tap density. 24.93 mg of milled Compound 2 was weighed directly into a tared 25 mL volumetric flask. The flask was diluted to volume with ACN and inverted to mix. This sample was taken to determine the % purity (% area) after Compound 2 had been milled.
After Compound 2 had been milled it was blended with 2.5% w/w of colloidal silicon dioxide, Cab-O-Sil®, on a T2 Turbula blender for 2 minutes. The blended powder was collected and its flow properties were analyzed on a FlowDex apparatus.

[4] = Compound 2 solubility in solvents and buffers (saturated, 24 h shaking, HPLC); format: physicochemical; settings: 50 mM phosphate buffer, aqueous buffer, thermodynamic from solid; pH 3 buffer (phosphate, 50 mM)
[5] = as above; format: physicochemical; settings: for solubility at 24 h: thermodynamic from solid
Procedure: Solubility of Compound 2 in a solvent, selected from water, methanol, acetonitrile (ACN) and iso-propanol and in 50 mM phosphate buffer at pH 1, 2, 7 and 8, 50 mM citrate buffer at pH 3, 4, 5 and 6 and in 50 mM borate buffer at pH 9 was assessed. Compound 2 was added to 10 mL of the solvent or buffer until the solution was visibly saturated and remained cloudy upon vortex mixing. Each sample was placed on a reciprocal shaker at room temperature for 24 hours then filtered through a 0.45 μm nylon filter to remove excess suspended compound. The samples were then diluted where required in accordance with Table 24, and analyzed by HPLC. The results were compared with a standard curve of known concentrations in ACN.

[6] = dog, in vivo, po, 10 mg/kg
Procedure: as §1, §2, §3

[7] = Table 42 summary, mean, dogs, single oral 10 mg/kg, plasma Compound 1
[8] = dog 301, single oral 10 mg/kg dose, plasma Compound 1
[9] = dog 302, single oral 10 mg/kg dose, plasma Compound 1
[10] = dog 303, single oral 10 mg/kg dose, plasma Compound 1
[11] = dog 304, single oral 10 mg/kg dose, plasma Compound 1
[12] = mean of dogs, single oral 10 mg/kg dose, plasma Compound 1

SMILES: COc1ccc2c(c1OCc1ccccc1)C[C@@H](C(=O)[O-])N(C(=O)C(c1ccccc1)c1ccccc1)C2.[Na+] [Compound 2, sodium salt of (S)-2-(diphenylacetyl)-1,2,3,4-tetrahydro-6-methoxy-5-(phenylmethoxy)-3-isoquinoline carboxylic acid]
- t = 1 week % Purity at 5° C. ([1]; pH 6 buffer solution): 87.02%
- t = 1 week % Purity at 25° C./60% RH ([1]; pH 6 buffer solution): 88.98%
- Δ% Purity at 5° C. ([1]; pH 6 buffer solution): −1.35%
- Δ% Purity at 25° C./60% RH ([1]; pH 6 buffer solution): +0.61%
- Initial % Purity ([1]; pH 6 buffer solution): 88.37%
- t = 1 week % Purity at 5° C. ([1]; pH 7 buffer solution): 74.27%
- t = 1 week % Purity at 25° C./60% RH ([1]; pH 7 buffer solution): 76.52%
- Δ% Purity at 5° C. ([1]; pH 7 buffer solution): −1.85%
- Δ% Purity at 25° C./60% RH ([1]; pH 7 buffer solution): +0.40%
- Initial % Purity ([1]; pH 7 buffer solution): 76.12%
- t = 1 week % Purity at 5° C. ([1]; pH 8 buffer solution): 81.45%
- t = 1 week % Purity at 25° C./60% RH ([1]; pH 8 buffer solution): 86.70%
- Δ% Purity at 5° C. ([1]; pH 8 buffer solution): −4.09%
- Δ% Purity at 25° C./60% RH ([1]; pH 8 buffer solution): +1.16%
- Initial % Purity ([1]; pH 8 buffer solution): 85.54%
- t = 1 week % Purity at 5° C. ([1]; pH 9 buffer solution): 89.17%
- t = 1 week % Purity at 25° C./60% RH ([1]; pH 9 buffer solution): 91.60%
- Δ% Purity at 5° C. ([1]; pH 9 buffer solution): −2.07%
- Δ% Purity at 25° C./60% RH ([1]; pH 9 buffer solution): +0.36%
- Initial % Purity ([1]; pH 9 buffer solution): 91.24%
- t = 1 week % Purity at 5° C. ([1]; solution in ACN): 97.50%
- t = 1 week % Purity at 25° C./60% RH ([1]; solution in ACN): 97.46%
- Δ% Purity at 5° C. ([1]; solution in ACN): 0.00%
- Δ% Purity at 25° C./60% RH ([1]; solution in ACN): −0.04%
- Initial % Purity ([1]; solution in ACN): 97.50%
- t = 1 week % Purity at 5° C. ([1]; solution in H2O): 94.66%
- t = 1 week % Purity at 25° C./60% RH ([1]; solution in H2O): 95.67%
- Δ% Purity at 5° C. ([1]; solution in H2O): −0.92%
- Δ% Purity at 25° C./60% RH ([1]; solution in H2O): +0.09%
- Initial % Purity ([1]; solution in H2O): 95.58%
- t = 1 week % Purity at 5° C. ([1]; solution in IPA): 89.59%
- t = 1 week % Purity at 25° C./60% RH ([1]; solution in IPA): 90.51%
- Δ% Purity at 5° C. ([1]; solution in IPA): +0.31%
- Δ% Purity at 25° C./60% RH ([1]; solution in IPA): +1.23%
- Initial % Purity ([1]; solution in IPA): 89.28%
- t = 1 week % Purity at 5° C. ([1]; solution in MeOH): 97.52%
- t = 1 week % Purity at 25° C./60% RH ([1]; solution in MeOH): 97.39%
- Δ% Purity at 5° C. ([1]; solution in MeOH): +0.13%
- Δ% Purity at 25° C./60% RH ([1]; solution in MeOH): 0.00%
- Initial % Purity ([1]; solution in MeOH): 97.39%
- AUC(0-t) [2, 7]: 1840 ng·h/mL
- AUC(0-t) [2, 8]: 1290 ng·h/mL
- AUC(0-t) [2, 9]: 2350 ng·h/mL
- AUC(0-t) [2, 10]: 1520 ng·h/mL
- AUC(0-t) [2, 11]: 2180 ng·h/mL
- AUC(0-t) [2, 12]: 1830 ng·h/mL
- AUC(0-inf) [2, 7]: 1840 ng·h/mL
- AUC(0-inf) [2, 8]: 1300 ng·h/mL
- AUC(0-inf) [2, 9]: 2350 ng·h/mL
- AUC(0-inf) [2, 10]: 1520 ng·h/mL
- AUC(0-inf) [2, 11]: 2220 ng·h/mL
- AUC(0-inf) [2, 12]: 1840 ng·h/mL
- Cmax ([2]; Cmax, dog 301, single oral 10 mg/kg dose, plasma Compound 1): 1110 ng/mL
- Cmax ([2]; Cmax, dog 302, single oral 10 mg/kg dose, plasma Compound 1): 1220 ng/mL
- Cmax ([2]; Cmax, dog 303, single oral 10 mg/kg dose, plasma Compound 1): 1750 ng/mL
- Cmax ([2]; Cmax, dog 304, single oral 10 mg/kg dose, plasma Compound 1): 2270 ng/mL
- Cmax ([2]; Cmax, mean of dogs, single oral 10 mg/kg dose, plasma Compound 1): 1590 ng/mL
- half-life ([2]; Mean harmonic T1/2, male beagle dogs, single oral 10 mg/kg capsule, fasted, Compound 1 in plasma): 2.49 ± 0.391 h
- half-life ([2]; T1/2, Table 42 summary, harmonic mean, dogs, single oral 10 mg/kg, plasma Compound 1): 2.49 h
- half-life ([2]; T1/2, dog 301, single oral 10 mg/kg dose, plasma Compound 1): 2.51 h
- half-life ([2]; T1/2, dog 302, single oral 10 mg/kg dose, plasma Compound 1): 2.73 h
- half-life ([2]; T1/2, dog 303, single oral 10 mg/kg dose, plasma Compound 1): 2.05 h
- half-life ([2]; T1/2, dog 304, single oral 10 mg/kg dose, plasma Compound 1): 2.81 h
- half-life ([2]; T1/2, harmonic mean of dogs, single oral 10 mg/kg dose, plasma Compound 1): 2.49 h
- Tmax ([2]; Tmax, Table 42 summary, median, dogs, single oral 10 mg/kg, plasma Compound 1): 0.75 h
- Tmax ([2]; Tmax, dog 301, single oral 10 mg/kg dose, plasma Compound 1): 0.75 h
- Tmax ([2]; Tmax, dog 302, single oral 10 mg/kg dose, plasma Compound 1): 1 h
- Tmax ([2]; Tmax, dog 303, single oral 10 mg/kg dose, plasma Compound 1): 0.75 h
- Tmax ([2]; Tmax, dog 304, single oral 10 mg/kg dose, plasma Compound 1): 0.5 h
- Tmax ([2]; Tmax, median of dogs (Mean column), single oral 10 mg/kg dose, plasma Compound 1): 0.75 h
- Cmax ([2]; mean Cmax, male beagle dogs, single oral 10 mg/kg capsule, fasted, Compound 1 in plasma, mean±SD): 1590 ± 534 ng/mL
- Tmax ([2]; median Tmax, male beagle dogs, single oral 10 mg/kg capsule, fasted, Compound 1 in plasma): 0.75 h
- average particle size ([3]; after milling): ~560 μm
- % Purity with milling ([3]; before vs after milling): % Purity of Compound 2 sample did not change with milling.
- powder flow (FlowDex) ([3]; bulk unmilled): unable to pass through the largest available, 34 mm, orifice
- average particle size ([3]; bulk, before milling): ~775 μm
- Bulk Density ([3]; milled (conical mill, 1143 μm screen)): 0.073 g/mL
- Tap Density ([3]; milled): 0.098 g/mL
- powder flow (FlowDex) ([3]; milled, blended with 2.5% w/w colloidal silicon dioxide): passed through a 34 mm orifice but failed to pass through a 32 mm orifice
- Bulk Density ([3]; unmilled): 0.089 g/mL
- Tap Density ([3]; unmilled): 0.114 g/mL
- solubility at 24 h [4]: < 1 µg/mL
- solubility at 24 h ([5]; 50 mM borate buffer, aqueous buffer, pH 9 buffer (borate, 50 mM)): 5300 µg/mL
- solubility at 24 h ([5]; 50 mM citrate buffer, aqueous buffer, pH 4 buffer (citrate, 50 mM)): < 1 µg/mL
- solubility at 24 h ([5]; 50 mM citrate buffer, aqueous buffer, pH 5 buffer (citrate, 50 mM)): 33 µg/mL
- solubility at 24 h ([5]; 50 mM citrate buffer, aqueous buffer, pH 6 buffer (citrate, 50 mM)): 900 µg/mL
- solubility at 24 h ([5]; 50 mM phosphate buffer, aqueous buffer, pH 1 buffer (phosphate, 50 mM), room temperature 24 h): < 1 µg/mL
- solubility at 24 h ([5]; 50 mM phosphate buffer, aqueous buffer, pH 2 buffer (phosphate, 50 mM)): < 1 µg/mL
- solubility at 24 h ([5]; 50 mM phosphate buffer, aqueous buffer, pH 7 buffer (phosphate, 50 mM)): 1700 µg/mL
- solubility at 24 h ([5]; 50 mM phosphate buffer, aqueous buffer, pH 8 buffer (phosphate, 50 mM)): 1600 µg/mL
- Solubility ([5]; Methanol): >50000 µg/mL
- solubility at 24 h ([5]; acetonitrile, organic solvent or mixture): 12000 µg/mL
- solubility at 24 h ([5]; iso-propanol, organic solvent or mixture, IPA): 700 µg/mL
- solubility at 24 h ([5]; methanol, organic solvent or mixture): > 50000 µg/mL
- solubility at 24 h ([5]; water): 14000 µg/mL
- Plasma concentration of Compound 1, 0.25 h [6]: BQL
- Plasma concentration of Compound 1, 0.5 h [6]: BQL
- Plasma concentration of Compound 1, 24 h [6]: BQL
- Plasma concentration of Compound 1, Predose [6]: BQL
- Plasma concentration of Compound 1, Predose ([6]; male, beagle): 0.00 ng/mL
